The results in this text go back to US20260015451A1, “FOAMED-RESIN-FORMABLE COMPOSITION, POLYUREA-BASED RESIN FOAM BODY, AND POLYUREA-BASED RESIN FOAM BODY PRODUCTION METHOD” (MITSUBISHI GAS CHEMICAL COMPANY, INC., priority 2022, published 2026).

The nature of series [1]: Maximum carbon dioxide (CO2) release temperature by DSC. The following applies: after 24 hours in air at 23° C. and 50% RH; heating rate 10° C./minute, nitrogen. The class given is physicochemical. As for the experimental part:
A carbon dioxide detector and a Petri dish were placed in an openable desiccator (inner dimension: 370 mm × 260 mm × 272 mm). Subsequently, the cyclic polyamine compound (5 mmol) was added to the Petri dish in the desiccator and the door was immediately closed to leave the cyclic polyamine compound to stand in the desiccator in an air environment at 23° C. and 50% RH for 24 hours. The initial concentration of carbon dioxide was adjusted to about 400 ppm.
Then the cyclic polyamine compound was taken out of the desiccator to give a cyclic polyamine compound with carbon dioxide absorbed. The maximum carbon dioxide release temperature of the cyclic polyamine compound with carbon dioxide absorbed was measured by subjecting the cyclic polyamine compound to DSC as described below. First, differential scanning calorimetry of the cyclic polyamine compound was performed under conditions of a temperature range of 23 to 250° C., a heating rate of 10° C./minute and a nitrogen atmosphere using a differential thermogravimeter (product name DTG-60 made by Shimadzu Corporation). The temperature at which the amount of heat absorbed due to the desorption of carbon dioxide was the maximum was calculated from the DSC curve obtained, and the temperature was determined as the maximum carbon dioxide release temperature of the cyclic polyamine compound.

Series [2] can be described thus: Percentage increase of mass after standing in air (absorption of carbon dioxide). The series is classed as physicochemical. The following applies: air environment at 23° C. and 50% RH for a week. The method, then:
A cyclic polyamine compound, MXDA, was put in a container and left to stand in an air environment at 23° C. and 50% RH for a week. By doing so, MXDA and carbon dioxide in the air were reacted to give a reaction product of MXDA and carbon dioxide (carbonate of MXDA). At that stage, to suppress uneven reaction, the container in which the cyclic polyamine compound was placed was shaken as necessary so as not to leave unreacted MXDA. The water content in the resulting reaction product (carbonate of MXDA) was 0% by mass.
Next, the amount of increase of the mass of MXDA was measured, and the percentage increase of the mass of the cyclic polyamine compound was calculated by the following equation.
Percentage increase of mass of cyclic polyamine compound [% by mass]=100×amount of increase of mass of cyclic polyamine compound (g)/(initial mass of cyclic polyamine compound (g)[…])

Each structure is given as a SMILES string.

`NCc1cccc(CN)c1` [MXDA, metaxylylenediamine]: the “maximum carbon dioxide (CO2) release temperature” value in series [1] turned out to be 135.5 °C. The “percentage increase of the mass” value in series [2] is on record as 24.1 % by mass.
